From patent US20230060873A1, “COMPOUNDS AND METHODS FOR FORMING ION CHANNELS IN BIOLOGICAL MEMBRANES” (Washington University, priority 2021, published 2023)

Assays:
[1] = Reversal potential and permeability ratio under bi-ionic conditions (voltage ramps); format: biochemical; details: 10 μM; for permeability ratio pK/pNa: Goldman-Hodgkin-Katz equation from reversal potential; for estimated reversal potential: internal 180 mM NaCl, 20 mM KCl, external 20 mM NaCl, 180 mM KCl, n=6
Protocol: This can be determined by measuring the reversal potential under bi-ionic conditions and by applying rapid voltage ramps to measure reversal from open channels. For the determination of permeability ratios, a voltage protocol (detailed below) was applied 100 times to the membrane, while a gradient of ions was set through the membrane (internal solution: 180 mM NaCl, 20 mM KCl, 30 mM HEPES, pH adjusted to 7.4 with NaOH; external solution: 20 mM NaCl, 180 mM KCl, 30 mM HEPES, pH adjusted to 7.4 with NaOH). The protocol started from the holding potential (0 mV), followed by a jump to 100 mV during 100 ms, then a ramp of 1000 ms until −100 mV, maintenance of the voltage at −100 mV for 100 ms before returning to the initial 0 mV holding potential. Calculation of the variance at every isochrone allowed determination of the reversal potential (Vrev) as the voltage at which the variance is minimized. The permeability ratio for
was calculated from the Goldman-Hodgkin-Katz (GHK) equation by assuming that reversal potential is the equilibrium membrane voltage reached by a selective membrane in the presence of that gradient of ions. This leads to the equation 1: […]
where F is the Faraday constant, R is the gas constant, T is the absolute temperature, [K^+]i, and [K^+]e are the internal and external K^+ concentrations, respectively, and [Na^+]i, and [Na^+]e are the internal and external Na^+ concentrations, respectively.
Multiple voltage ramps (N=100) from +100 mV to −100 mV were applied in the presence of 10 μM 6-A-10 (FIG. 18) and 10 μM 6-O-10 (FIG. 20). The reversal potential for each case was determined as that voltage which produces the minimum of variance (FIGS. 19 and 21). In FIGS. 19 and 21, the curves are the variance calculated from experiments in FIGS. 18 and 20, respectively.
In these experiments, the internal concentration of Na^+ in the pipette was 9-fold higher than the external concentration, whereas the K^+ gradient was reversed (internal solution: 180 mM NaCl, 20 mM KCl, 30 mM HEPES, pH 7.4; external solution: 20 mM NaCl, 180 mM KCl, 30 mM HEPES, pH 7.4). If the channels are K^+ selective, the reversal potential will be close to the K^+ Nernst potential, which is 58 mV. In contrast, if the channels are highly Na^+ selective, then the reversal potential will be close to the Na^+ Nernst potential (−58 mV).

B. subtilis membranes = experiment: DiSC3(5) depolarization assay, MAcBCE/MAkBCE; format: cell-based, Bacillus subtilis; details: 2 μM compound, 60 mM KCl, NaCl or NMDG-Cl; for change in DiSC3(5) fluorescence (membrane depolarization): 25° C, 10 minutes
Protocol: A 2 mL liquid culture of transformed B. subtilis cells was grown at 37° C. in LB medium supplemented with 5 μg/mL kanamycin until OD600=0.6 was reached. The cells were collected by centrifugation at 2000 rpm over 3 min. The bacteria were washed twice with an NMDG-MeSO3 solution (100 mM NMDG, 10 mM HEPES, pH adjusted to 7.4 with methane sulfonic acid). […] The working dye solution was a 200 μM solution of DiSC3(5) (3,3′-dipropylthiadicarbocyanine iodide; Tokyo Chemical Industry) in DMSO. A series of 2 M solutions of NMDG-Cl, NaCl and KCl were prepared containing 10 mM HEPES; the pH was adjusted to pH 7.4 with NMDG, NaOH or KOH, respectively, to avoid any pH changes after their addition. The experiment was initiated with 3 mL of NMDG-MeSO3 in a quartz cuvette, then 5 μL of the dye solution was added (timepoint t1, 50 sec) for a 0.3 μM final concentration by the end of experiment. This was followed by the addition of 100 μL of the B. subtilis suspension (timepoint t2, 100 sec). After 150 sec (timepoint t3, 250 sec), the fluorescence stabilized to a minimum intensity and 100 μL of the 2 M NMDG-Cl, NaCl or KCl solution was added to reach ˜60 mM final concentration of the salt. The final step was the addition 0.64 μL of a 10 mM stock solution of the desired MAcBCE or MAkBCE compound in TFE (timepoint t4, 400 sec), for a final concentration of 2 μM. Negative controls were performed by adding the same volume of pure TFE to the cuvette at timepoint t4. Fluorescence intensity was recorded each second using a Horiba Fluoromax 4 spectrometer (λexcitation=640 nm; λemission=670 nm). The solution inside the cuvette was vigorously mixed throughout the experiment by using a magnetic stirrer and the temperature was kept constant at 25° C. For purposes of normalization, the fluorescence intensity was divided by the fluorescence level just before timepoint t2.
To determine whether MAcBCE or MAkBCE compounds catalyse ion-selective flux, a set of highly bioactive members bearing ten-carbon chain lengths were tested for their ability to depolarize B. subtilis membranes using a test based on the fluorescent dye 3,3-dipropylthiadicarbocyanine (DiSC3(5)). This set of compounds were selected as four of the most toxic members of the MAcBCE and MAkBCE compound library (5-O-10, 5-A-10, 6-O-10, and 6-A-10; FIG. 3) belong to this group and all are soluble in TFE. The two non-toxic benzo(12-crown-4) scaffold members (4-O-10 and 4-A-10; FIG. 3) were used as controls.
FIGS. 4 and 5 show the time course of DiSC3(5) fluorescence due to the addition of 2 μM 6-A-10 (FIG. 4) and 6-O-10 (FIG. 5). The average of the final fluorescence values (mean±S.E.M.) of at least three experiments are shown in FIGS. 4 and 5 and are similarly plotted for 4-A-10 (FIG. 6), 5-A-10 (FIG. 7), 6-A-10 (FIG. 8), 4-O-10 (FIG. 9), 5-O-10 (FIG. 10), and 6-O-10 (FIG. 11). Experiments were performed in a NMDG-MeSO3 solution (100 mM NMDG, 10 mM HEPES, pH adjusted to 7.4 with methane sulfonic acid). The events are: t1, addition of dye; t2, addition of B. subtilis; t3, addition of a 2 M NMDG-Cl, 2 M NaCl or a 2 M KCl solution up to a final concentration of 60 mM; t4, addition of each MAcBCE or MAkBCE compound up to 2 μM. Experiments were repeated at least four times per condition and normalized relative to the fluorescence intensity just before the addition of cells.
The potentiometric dye DiSC3(5) was used to measure the ability of MAcBCE and MAkBCE compounds to catalyse ion-selective transport. DiSC3(5) undergoes membrane voltage-dependent partitioning between the intracellular and the extracellular medium. DiSC3(5) accumulates within a cell with a polarized membrane (negatively charged inside the cell) and is released when the cell membrane is depolarized (positively charged inside the cell). The membrane voltage in B. subtilis is roughly −120 mV, leading to DiSC3(5) accumulation in the bacteria (timepoint t2 in FIG. 4A-B). […]

| Structure (SMILES) | permeability ratio pK/pNa [1] | estimated reversal potential [1] [mV] | change in DiSC3(5) fluorescence (membrane depolarization) (B. subtilis membranes) | kinetics of the depolarization, ion dependence (B. subtilis membranes) |
| --- | --- | --- | --- | --- |
| CCCCCCCCCCc1ccc2c(c1)OCCOCCOCCOCCOCCO2 [Compound 6-A-10, 18-decyl-2,3,5,6,8,9,11,12,14,15-decahydrobenzo[b][1,4,7,10,13,16]hexaoxacyclooctadecine] | 1.4 | 8.0±0.8 | clear increase in fluorescence |  |
| CCCCCCCCCC(=O)c1ccc2c(c1)OCCOCCOCCOCCOCCO2 [Compound 6-O-10, 1-(2,3,5,6,8,9,11,12,14,15-decahydrobenzo[b][1,4,7,10,13,16]hexaoxacyclooctadecin-18-yl)decan-1-one] | 1.3 | 6.5±0.6 | clear increase in fluorescence | fastest in presence of K^+ followed by Na^+ and then NMDG^+ |
